US20230075765A1, “PYRROLO[2,3-D]PYRIMIDINE DERIVATIVE TARGETING EGFR MUTATION, AS WELL AS THE PREPARATIVE METHOD AND THE USE THEREOF” (WEST CHINA HOSPITAL, SICHUAN UNIVERSITY, priority 2020, published 2023)
pIC50: −log10 of the molar value. Read-outs that look alike come from different tables or passages of the source.

Legend:
Assay type in all cases: cell-based, human
[1] = tested on: normal cells and different lung cancer cell lines; experiment: Inhibition of cell proliferation, CCK8 method, comparison in words over the whole cell panel; conditions: BEAS-2B, HBE, H460, A549, H1975, HCC827; CCK8, 48 h
Protocol: (§1) Compounds 1-9 of the present invention were respectively weighed and dissolved in 1 ml of dimethyl sulfoxide (DMSO), to prepare a 10 mM drug solution, which was stored in a refrigerator at −20° C. in the dark after packaging. The stock solution was diluted with the corresponding culture medium to the required concentration just before the experiment.
(§2) HBE cells and BEAS-2B cells are normal lung bronchial epithelial cell lines, and both cells were cultured in DMEM high glucose medium (supplemented with 10% fetal bovine serum and 1% double antibody) to the logarithmic growth phase; H460 cells, A549 cells, H1975 cells and HCC827 cells are lung cancer cell lines, and all of them were cultured in RPMI1640 medium (supplemented with 10% fetal bovine serum and 1% double antibody) to the logarithmic growth phase. Among them, H1975 cells and HCC827 cells are EGFR mutant cells.
(§3) When the cells were cultured to 90% of the growth density, the cells were digested with 0.25% trypsin to prepare a single cell suspension. The cells were counted, and then seeded in a 96-well plate at a density of 5000 cells/well, 100 μl for each well. The culture plate was moved into a CO2 incubator and incubated for 24 h at 37° C. and 5% CO2. Compounds at different concentrations were added to each well, 5 replicate wells for each concentration, and the cells were treated with the compounds for 48 hours. CCK8 detection reagent was added to each well according to the operation manual, and then the plate was further incubated for 1 h before terminating the culture. 450 nm wavelength was chosen, and the absorbance value of each well was adjusted on the microplate ELISA analyzer. The result was recorded. […] was taken as the horizontal axis, and absorbance as the vertical axis to plot a curve. The half inhibitory concentration (IC50) was calculated by Bliss method. Each experiment was repeated at least 3 times.
(§4) Normal lung cell lines and different lung cancer cell lines were selected for experiments. Amongst, the compound with high anti-cancer activity was screened, whose anti-tumor activity was further studied.

[2] = tested on: H460 cells; experiment: Inhibition of cell proliferation, CCK8 method; conditions: 48 h, read-out: Inhibitory activity (IC50) against H460
Protocol: as §1, §2, §3, §4

[3] = tested on: BEAS-2B cells; experiment: Inhibition of cell proliferation, CCK8 method; conditions: BEAS-2B normal bronchial epithelial cells, 48 h, read-out: Inhibitory activity (IC50) against BEAS-2B
Protocol: as §1, §2, §3, §4

[4] = tested on: A549 cells; experiment: Inhibition of cell proliferation, CCK8 method; conditions: A549 lung adenocarcinoma cells, 48 h, read-out: Inhibitory activity (IC50) against A549
Protocol: as §1, §2, §3, §4

[5] = tested on: HCC827 cells; experiment: Inhibition of cell proliferation, CCK8 method; conditions: HCC827 EGFR mutant cells, 48 h, CCK8, read-out: Inhibitory activity (IC50) against HCC827
Protocol: (§5) The stock solution was diluted with the corresponding culture medium to the required concentration just before the experiment.
as §2
as §3, with “The” for “When the cells were cultured to 90% of the growth density, the cells were digested with 0.25% trypsin to prepare a single cell suspension. The”
(§6) Normal lung cell lines and different lung cancer cell lines were selected for experiments.

[6] = tested on: HBE cells; experiment: Inhibition of cell proliferation, CCK8 method; conditions: HBE normal bronchial epithelial cells, 48 h, CCK8; read-out: Inhibitory activity (IC50) against HBE
Protocol: as §5, §2
as §3, with “The” for “When the cells were cultured to 90% of the growth density, the cells were digested with 0.25% trypsin to prepare a single cell suspension. The”
as §6

[7] = tested on: H1975 cells; experiment: Inhibition of cell proliferation, CCK8 method; conditions: H1975 EGFR mutant cells, 48 h, read-out: Inhibitory activity (IC50) against H1975
Protocol: as §5, §2
as §3, with “The” for “When the cells were cultured to 90% of the growth density, the cells were digested with 0.25% trypsin to prepare a single cell suspension. The”
as §6

[8] = tested on: HCC827 cells; experiment: Apoptosis, Annexin V-FITC/PI double staining, flow cytometry; conditions: 18 h (control 10.8)
Protocol: (§7) Apoptosis was detected by Annexin V-FITC/PI double staining method. A variety of different cells in the logarithmic growth phase were inoculated evenly in a 6-well plate at a concentration of 1×10^6 cells/well, 2 ml for each well, and then incubated overnight. Then, different compounds were added, and each compound was set different concentrations. After 18 h, the cells were collected with 0.25% trypsin without EDTA and washed twice with PBS solution. Then, the cells were stained by the apoptosis detection kit according to the instructions, and analyzed by flow cytometry.
(§8) In the experiment, human lung cancer cells HCC827 cells and H1975 cells were selected as the detection system. The control group was a blank control (DMSO). The test concentrations of the compounds were 0.5 μM and 5 μM. After treatment with the compounds for 18 h, the flow cytometry was used for detection. In the apoptosis result graph, the cells in quadrant E1 are necrotic cells, the cells in quadrant E2 are late apoptotic cells, the cells in quadrant E3 area represent live cells, and the cells in quadrant E4 are early apoptotic cells.

[9] = tested on: H1975 cells; experiment: as above; conditions: 18 h (control 9.2)
Protocol: as §7, §8

[10] = tested on: HCC827 cells; experiment: Cell cycle, PI staining, flow cytometry; conditions: 18 h (control 33.66)
Protocol: (§9) A variety of different cells in the logarithmic growth phase were inoculated evenly in a 6-well plate at a concentration of 1×10^6 cells/well, 2 ml for each well, and then incubated overnight. Then, different compounds were added, and each compound was set different concentrations. After 18 h, the cells were collected, resuspended in PBS, and centrifuged to remove the supernatant, to which was then added 0.5 ml of pre-cooled 75% absolute ethanol dropwise, followed by vortexing to mix the cells and standing overnight at 4° C. The solution was centrifuged at 1000 rpm/min for 4 min, and the supernatant was discarded. Propidium iodide staining solution was prepared by using 5.6 ml staining buffer, 210 μl propidium iodide staining solution (25×), and 56 μl RNaseA (2.5 mg/ml). 0.4 ml of propidium iodide staining solution was added to each tube to resuspend the cells, and then incubated for 30 min at room temperature in the dark. The cell suspension was gently pipetted to mix, filtered into a flow tube, and stored in the dark at 4° C. The cells were detected on the flow cytometer within 1 h.

[11] = tested on: H1975 cells; experiment: Cell cycle, PI staining, flow cytometry; conditions: 18 h (control 30.25)
Protocol: as §9

[12] = H460 large cell lung cancer cells

Row | SMILES | inhibitory effect on different cell lines (in words) [1] | pIC50 [2, 12] | pIC50 [3] | pIC50 [4] | pIC50 [5] | pIC50 [6] | pIC50 [7] | Total apoptosis rate (%) ([8]; 0.5 μM) | Total apoptosis rate (%) ([8]; 5 μM) | Total apoptosis rate (%) ([9]; 0.5 μM) | Total apoptosis rate (%) ([9]; 5 μM) | pIC50 ([2]; Homo sapiens, NCI-H460, H460 large cell lung cancer cells) | pIC50 ([3]; Homo sapiens) | pIC50 ([4]; Homo sapiens) | pIC50 ([5]; Homo sapiens) | S phase (%) ([10]; 0.5 μM) | S phase (%) ([10]; 5 μM) | S phase (%) ([11]; 0.5 μM) | S phase (%) ([11]; 5 μM)
1 | C=CC(=O)Nc1cccc(Oc2nc(Nc3ccc(N4CCN(C)CC4)cc3)nc3[nH]ccc23)c1 [Compound 3] | lower | 4.44 | 4.62 | 5.00 | 6.62 | 4.55 | 4.66 |  |  |  |  |  |  |  |  |  |  |  | 
2 | C=CC(=O)Nc1cccc(Oc2nc(Nc3ccc(N4CCN(C)CC4)c(F)c3)nc3[nH]ccc23)c1 [Avitinib, reference compound] |  |  |  |  |  |  |  | 30.3 | 35.4 | 9.5 | 11.7 | 5.25 | 5.39 | 5.70 | 6.96 | 9.09 | 10.83 | 3.74 | 13.19
3 | C=CC(=O)Nc1cccc(Oc2nc(Nc3ccc(N4CCN(C)CC4)c(F)c3)nc3[nH]ccc23)c1 [Compound 1] | basically the same as that of the positive control | 5.22 | 5.43 | 5.72 | 7.00 |  | 5.69 |  |  |  |  |  |  |  |  |  |  |  | 
